The record followed here is patent publication US9403804B2, “Inhibitors of c-fms kinase” (Janssen Pharmaceutica NV, priority 2006, dated 2016).

The test system of assay [1] is mouse bone-marrow derived macrophages (BMDM). The experiment in a line: CSF-1-driven mouse bone-marrow derived macrophages proliferation assay (BrDU incorporation). In kind it is cell-based. The note with it: 30 hrs culture, read-out: mCSF driven proliferation BMDM (Mouse) IC-50. On the procedure:
CSF-1-Driven Mouse Bone-Marrow Derived Macrophages Assay
Macrophages are derived by culturing mouse bone marrow in alpha-MEM supplemented with 10% FCS and 50 ng/ml recombinant mouse CSF-1 in bacteriologic dishes. On the sixth day, macrophages are detached from dishes, washed, and resuspended to 0.05 million cells/ml in alpha-MEM containing 10% FCS. One hundred ul of cell suspension are distributed per well into 96 well culture plates. Wells are further supplemented with the addition of 50 ul media containing 15 ng/ml CSF-1, 3 uM Indomethacin, and 3× of a dilution series of test compounds. The cells are cultured for 30 hrs at 37 degrees and 5% CO2. During the final six hours, cultures are supplemented with an additional 30 ul of media containing a 1:500 dilution of bromodeoxyuridine (BrDU). At the end of the culture period, the plates are spun at 1000 RPM for 1 minute and 130 ul of media is removed with a pipet and replaced with 150 ul of fixative solution for 1 hour @ room temperature. The fixative is then dispelled from the plates and the plates allowed to air dry. Incorporation of BrDU into the fixed, dried cells is quantified using a specific ELISA.

The target of the next assay is c-fms (Homo sapiens (Human), UniProt P07333). In words: Autophosphorylation, fluorescence polarization competition immunoassay for c-fms inhibition. The note with it: averages of three independent measurements; read-out: 1 nM c-fms; peptide Pi assay IC-50. In kind it is biochemical. Here is the method:
Fluorescence Polarization Competition Immunoassay
The assay buffer used was 100 mM 4-(2-hydroxyethyl)piperazine 1-ethanesulfonic acid (HEPES), pH 7.5, 1 mM 1,4-dithio-DL-threitol (DTT), 0.01% (v/v) Tween-20. Compounds were diluted in assay buffer containing 4% dimethylsulfoxide (DMSO) just prior to the assay. […] The kinase reaction was initiated by adding 2 μL of 5 mM ATP (Sigma) in assay buffer. […] Control reactions were ran in each plate: in positive and negative control wells, assay buffer (made 4% in DMSO) was substituted for the compound; in addition, positive control wells received 1.2 μL of 50 mM ethylenediaminetetraaceticacid (EDTA).
The plates were incubated at room temperature for 45 min. At the end of the incubation, the reaction was quenched with 1.2 μL of 50 mM EDTA (EDTA was not added to the positive control wells at this point; see above). Following a 5-min incubation, each well received 10 μL of a 1:1:3 mixture of anti-phosphotyrosine antibody, 10×, PTK green tracer, 10× (vortexed), FP dilution buffer, respectively (all from PanVera, cat. # P2837). The plate was covered, incubated for 30 min at room temperature and the fluorescence polarization was read on the Analyst. The instrument settings were: 485 nm excitation filter; 530 nm emission filter; Z height: middle of well; G factor: 0.93. […] The reported IC50 values are averages of three independent measurements.

Molecules are shown by their SMILES.

c-fms, sequence (P07333 20-972): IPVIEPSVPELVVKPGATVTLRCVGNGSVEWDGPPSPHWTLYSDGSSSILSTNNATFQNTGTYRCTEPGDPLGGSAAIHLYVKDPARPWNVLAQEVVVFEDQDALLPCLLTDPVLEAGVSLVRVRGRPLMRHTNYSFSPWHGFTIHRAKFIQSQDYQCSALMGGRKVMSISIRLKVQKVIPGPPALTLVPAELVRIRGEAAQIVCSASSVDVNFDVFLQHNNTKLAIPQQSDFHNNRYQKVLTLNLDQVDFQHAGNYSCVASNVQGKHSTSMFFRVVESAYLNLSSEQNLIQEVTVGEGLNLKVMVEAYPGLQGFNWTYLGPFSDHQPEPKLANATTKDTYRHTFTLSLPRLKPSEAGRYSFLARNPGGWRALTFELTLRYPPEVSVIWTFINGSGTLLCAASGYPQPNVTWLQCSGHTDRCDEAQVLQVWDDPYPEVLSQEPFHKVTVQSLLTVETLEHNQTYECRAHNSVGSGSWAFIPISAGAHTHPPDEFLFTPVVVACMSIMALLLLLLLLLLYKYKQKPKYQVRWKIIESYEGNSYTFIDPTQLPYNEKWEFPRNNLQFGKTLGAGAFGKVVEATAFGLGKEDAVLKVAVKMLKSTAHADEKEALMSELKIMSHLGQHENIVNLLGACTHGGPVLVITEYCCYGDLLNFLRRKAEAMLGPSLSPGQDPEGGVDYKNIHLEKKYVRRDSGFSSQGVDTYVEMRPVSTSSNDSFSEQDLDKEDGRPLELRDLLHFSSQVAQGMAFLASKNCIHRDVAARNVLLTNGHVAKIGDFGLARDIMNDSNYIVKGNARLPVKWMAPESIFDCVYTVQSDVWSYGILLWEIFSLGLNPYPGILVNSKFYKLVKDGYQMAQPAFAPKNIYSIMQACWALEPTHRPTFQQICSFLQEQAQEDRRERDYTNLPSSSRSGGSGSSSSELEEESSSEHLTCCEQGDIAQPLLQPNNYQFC

With `CC1(C)CC=C(c2cc(C3(O)CCCCC3)ccc2NC(=O)c2nc(C#N)c[nH]2)CC1` [Example 1, 4-Cyano-1H-imidazole-2-carboxylic acid [2-(4,4-dimethyl-cyclohex-1-enyl)-4-(1-hydroxy-cyclohexyl)-phenyl]-amide], the IC50 in assay [1] was 72 nM; on c-fms it was 5.9 nM.
With `CC1(C)CC=C(c2cc([C@]3(O)CC[C@@H](C(=O)O)CC3)ccc2NC(=O)c2ncc(C#N)[nH]2)CC1` [Example 2, 4-[4-[(5-Cyano-1H-imidazole-2-carbonyl)-amino]-3-(4,4-dimethyl-cyclohex-1-enyl)-phenyl]-cis-4-hydroxy-cyclohexanecarboxylic acid], the IC50 in assay [1] is 87 nM; at c-fms, 0.65 nM.
For the compound `CC1(C)CC=C(c2cc(C3(O)CCCC3)ccc2NC(=O)c2nc(C#N)c[nH]2)CC1` [Example 3, 4-Cyano-1H-imidazole-2-carboxylic acid [2-(4,4-dimethyl-cyclohex-1-enyl)-4-(1-hydroxy-cyclopentyl)-phenyl]-amide], the figures for the IC50 (in assay [1]; on c-fms) were 11.7 nM and 2.3 nM, respectively.
Take `CC1(C)CC=C(c2cc(C3(C#N)CC3)ccc2NC(=O)c2nc(C#N)c[nH]2)CC1` [Example 4, 4-Cyano-1H-imidazole-2-carboxylic acid [4-(1-cyano-cyclopropyl)-2-(4,4-dimethyl-cyclohex-1-enyl)-phenyl]-amide]: the IC50 in assay [1] worked out at 99 nM; on c-fms, 9.5 nM.
On the same counts, the results for `CC1(C)CC=C(c2cc(C3(C#N)CCCCC3)ccc2NC(=O)c2nc(C#N)c[nH]2)CC1` [Example 14, 4-Cyano-1H-imidazole-2-carboxylic acid [4-(1-cyano-cyclohexyl)-2-(4,4-dimethyl-cyclohex-1-enyl)-phenyl}-amide] are 150 nM and 20 nM.
For `CC1(C)CC=C(c2cc(C3CCC(N4CCOCC4)CC3)ccc2NC(=O)c2nc(C#N)c[nH]2)CC1` (stereo not drawn) [Example 27, 4-Cyano-1H-imidazole-2-carboxylic acid [2-(4,4-dimethyl-cyclohex-1-enyl)-4-(4-morpholin-4-yl-cyclohexyl)-phenyl]-amide] the same measures were 16 nM and 1.9 nM.
As to `CN1CCN(C2CCC(c3ccc(NC(=O)c4nc(C#N)c[nH]4)c(C4=CCC(C)(C)CC4)c3)CC2)CC1` (stereo not drawn) [Example 28, 4-Cyano-1H-imidazole-2-carboxylic acid {2-(4,4-dimethyl-cyclohex-1-enyl)-4-[4-(4-methyl-piperazin-1-yl)-cyclohexyl]-phenyl}-amide], the IC50 is 10.2 nM in assay [1] and 0.99 nM on c-fms.
As to `COCCNC1(c2ccc(NC(=O)c3nc(C#N)c[nH]3)c(C3=CCC(C)(C)CC3)c2)CCCCC1` [Example 43, 4-Cyano-1H-imidazole-2-carboxylic acid {2-(4,4-dimethyl-cyclohex-1-enyl)-4-[1-(2-methoxy-ethylamino)-cyclohexyl]-phenyl}-amide], the IC50 in assay [1] was 111 nM; on c-fms, 2.9 nM.
Regarding `CC1(C)CC=C(c2cc([C@]3(O)CC[C@@H](N4CCOCC4)CC3)ccc2NC(=O)c2nc(C#N)c[nH]2)CC1` [Example 44, 4-Cyano-1H-imidazole-2-carboxylic acid [2-(4,4-dimethyl-cyclohex-1-enyl)-4-(cis-1-hydroxy-cis-4-morpholin-4-yl-cyclohexyl)-phenyl]-amide], in assay [1], the IC50 stood at 2.8 nM.
As to `CC1(C)CC=C(c2cc([C@]3(O)CC[C@H](N4CCOCC4)CC3)ccc2NC(=O)c2nc(C#N)c[nH]2)CC1` [Example 45, 4-Cyano-1H-imidazole-2-carboxylic acid [2-(4,4-dimethyl-cyclohex-1-enyl)-4-(cis-1-hydroxy-trans-4-morpholin-4-yl-cyclohexyl)-phenyl]-amide], the IC50 in assay [1] came out at 8.5 nM.
